This note sets out measurements from ChEMBL document CHEMBL1151604, “Enantiomerically pure synthesis and antiviral evaluation of [(2S, 3S)-bis(hydroxymethyl)azetidin-1-yl] purine nucleosides: Analogs of oxetanocin-A” (Bioorg Med Chem Lett, 1995).

The structures appear in SMILES notation. ≈ marks a conversion by molar mass, not a printed value.

Type in all cases: functional, cell-based
One assay concerns MT4. Kind of assay: In vitro evaluation of antiviral activity against HSV-1 (Herpes simplex virus-1) induced cytopathic effect in MT-4 cells by indirect immunofluorescence assay. The following applies: Homo sapiens.
Assay [1] has as its system Vero. Kind of assay: Compound was evaluated for cytotoxicity against vero cells up to a concentration of 100 ug/mL; non toxic. The following applies: Chlorocebus sabaeus.
Assay [2] has as its system Vero. The experiment in a line: In vitro evaluation of antiviral activity against HSV-1 (Herpes simplex virus-1) induced cytopathic effect in vero cells by a plaque reduction assay. The following applies: Chlorocebus sabaeus.
Assay [3] has as its system Vero. The experiment in a line: In vitro evaluation of antiviral activity against HSV-2 (Herpes simplex virus-2) induced cytopathic effect in vero cells by a plaque reduction assay. The following applies: Chlorocebus sabaeus.

`Cc1cn([C@H]2C[C@H](N=[N+]=[N-])[C@@H](CO)O2)c(=O)[nH]c1=O` [ZIDOVUDINE] showed an EC50 in the assay on MT4 of 0.0032 µg/mL (≈ 0.012 µM).
On to `Nc1nc(O)c2ncn(N3CC(CO)C3CO)c2n1` (configuration not stated), for which the results for the EC50 in the assay on MT4, with Vero [2] and with Vero [3] were 0.46 µg/mL (≈ 1.73 µM), 5.36 µg/mL (≈ 20.1 µM) and 6.32 µg/mL (≈ 23.7 µM), respectively. Also, the Activity result with Vero [1] was “Not toxic”.
`Nc1nc2c(ncn2COCCO)c(=O)[nH]1` [ACYCLOVIR]: the EC50 was found to be 0.32 µg/mL (≈ 1.42 µM) in the assay with Vero [2] and 0.39 µg/mL (≈ 1.73 µM) with Vero [3].
For the compound `Nc1ncnc2c1ncn2N1CC(CO)C1CO` (configuration not stated), the concentration for a half-maximal effect (EC50) is 0.37 µg/mL (≈ 1.48 µM) in the assay with MT4, 33.2 µg/mL (≈ 133 µM) with Vero [2] and 34.9 µg/mL (≈ 139 µM) in the assay on Vero [3]. Further, the Activity result with Vero [1] is “Not toxic”.
In the case of `O=c1[nH]cnc2c1ncn2[C@H]1CC[C@@H](CO)O1` [DIDANOSINE], the concentration for a half-maximal effect (EC50) with MT4 turned out to be 0.46 µg/mL (≈ 1.95 µM).

For orientation: EC50 means the concentration giving half of the maximal effect.
